Measurements published in PubChem BioAssay (NCI).
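96-well plates; 48 h exposure; 5 concentrations. Endpoints by linear interpolation between flanking doses. Not reached: highest tested concentration assigned. TGI: total growth inhibition.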

How the values were obtained:
Test in all cases: NCI-60 cell line screen, 48 h
[1] = system: HCT-15 colon
[2] = system: MOLT-4 leukemia
[3] = system: T-47D breast
[4] = system: EKVX NSCLC
[5] = system: CAKI-1 renal
[6] = system: UO-31 renal
[7] = system: RXF 393 renal
[8] = system: SK-MEL-28 melanoma
[9] = system: RPMI-8226 leukemia
[10] = system: HL-60(TB) leukemia

SMILES | TGI [1] | TGI [2] | TGI [3] | TGI [4] | TGI [5] | TGI [6] | TGI [7] | TGI [8] | TGI [9] | TGI [10]
OC(c1ccc(-c2ccccc2)cc1)C(F)(F)c1nc2ccccc2o1 (stereo not drawn) | > 100 µM | > 100 µM | > 100 µM | > 100 µM | 61.2 µM | > 100 µM | 49.5 µM | > 100 µM | > 100 µM | > 74.1 µM
CCC[C@H](C)C[C@H](C)C[C@H](C)/C=C(\C)[C@@H](O)[C@@H](C)C(=O)CC | 41.7 µM | 43.3 µM | 50.8 µM | 34.7 µM | 37.4 µM | 41.7 µM | 40 µM | 33.4 µM | 49 µM | 36.2 µM
CCC1(COC(NC(=O)c2ccccc2)(C(F)(F)F)C(F)(F)F)COC1 | > 100 µM | > 100 µM | > 100 µM | > 100 µM | > 100 µM | > 100 µM | > 100 µM | > 100 µM | > 100 µM | > 100 µM
COc1cc([C@@H]2c3cc(O)c(OC)cc3C=C(C(N)=O)[C@H]2C(N)=O)ccc1O | > 100 µM | > 100 µM | > 100 µM | > 100 µM | > 100 µM | > 100 µM | > 100 µM | > 100 µM | > 100 µM | > 100 µM
O=[As](O)(O)c1ccc(N=Nc2ccc(O)cc2)cc1 | > 100 µM | 17.1 µM | > 100 µM | > 100 µM | > 100 µM | > 100 µM | > 100 µM | > 100 µM | > 100 µM | > 100 µM
C[C@H]1C=C2[C@@H]3CC(C)(C(=O)O)CC[C@]3(C)CC[C@]2(C)[C@]2(C)CC[C@H]3C(C)(C)[C@@H](OC(=O)c4cccc5c(=O)c6ccccc6[nH]c45)CC[C@]3(C)[C@@H]12 (stereo partly drawn) | > 100 µM | > 100 µM | 87.5 µM | > 100 µM | > 100 µM | > 100 µM | > 100 µM | > 100 µM | > 100 µM | > 100 µM
COC(=O)c1c(OC(C)=O)ccc2c1c1c(OC(C)=O)c3ccccc3c(OC(C)=O)c1n2Cc1ccccc1 | 14.7 µM | > 50 µM | 10.5 µM | 10.4 µM | 27.9 µM | 24.7 µM | > 50 µM | 33.5 µM | 5.4 µM | 26.6 µM
COc1ccc2oc(=N)c(C(=O)Nc3ccccn3)cc2c1 | > 100 µM | > 100 µM | > 100 µM | > 100 µM | > 100 µM |  | > 100 µM | > 100 µM | > 100 µM | > 100 µM
N#C/C(=C\c1c[nH]c2ccccc12)C(=O)c1ccc(O)c(O)c1 | > 100 µM | 98.1 µM | > 100 µM | > 100 µM | > 100 µM | 45.9 µM | > 100 µM | > 100 µM | > 31.6 µM | 59.5 µM
CC(C)=C/C=C1/CS(=O)(=O)C=C1C | > 100 µM | > 100 µM | > 100 µM | > 100 µM | > 100 µM | > 100 µM | > 100 µM | > 100 µM | > 100 µM | > 100 µM
COC(=O)C1=C(OC(=O)c2ccccc2)C(C(=O)OC)[C@]2(O)[C@@H](C(=O)OC)[C@H]1C[C@@H](c1ccccc1)[C@@H]2C(=O)OC (stereo partly drawn) | 35.4 µM | 23 µM | 33.8 µM | > 100 µM | > 100 µM | 10.1 µM | 19.8 µM | 76.3 µM | 13.8 µM | 21.1 µM
CCN(CC)CCNCc1cc(Cl)cc2c1OCOC2 | > 10 µM | > 10 µM | > 10 µM | > 10 µM | > 10 µM | > 10 µM | > 10 µM | > 10 µM | > 10 µM | > 10 µM
O=C1NC(=S)N(c2ccccc2)C1=O | > 100 µM | > 100 µM | > 100 µM | > 100 µM | > 100 µM | > 100 µM | > 100 µM | > 100 µM | > 100 µM | > 100 µM
Brc1c(C#CCC2CCCCC2)ccc(C#CCC2CCCCC2)c1Br | > 100 µM | > 100 µM | > 100 µM | > 100 µM | > 100 µM |  | > 100 µM | > 100 µM | > 100 µM | > 100 µM
